Values quoted from earlier work, collected in patent US20080242731A1, “TOPICAL ANESTHESIA FORMULATION FOR BODILY CAVITIES” (T&A PHARMA PTY. LIMITED, priority 2003, published 2008).

Details: maintained at pH 7, low concentration, within 4 weeks

In the case of `CCN(CC)CC(=O)Nc1c(C)cccc1C` [lignocaine, Lignocaine], the degradation is given as 35%.
